From publication PMC11375437, “Selective labelling of GBA2 in cells with fluorescent β-D-arabinofuranosyl cyclitol aziridines” (Chemical Science, 2024) come the findings set out here.

This test deals with T1, GBA2 (Homo sapiens, UniProt Q9HCG7).
T1 sequence (Q9HCG7 1-927): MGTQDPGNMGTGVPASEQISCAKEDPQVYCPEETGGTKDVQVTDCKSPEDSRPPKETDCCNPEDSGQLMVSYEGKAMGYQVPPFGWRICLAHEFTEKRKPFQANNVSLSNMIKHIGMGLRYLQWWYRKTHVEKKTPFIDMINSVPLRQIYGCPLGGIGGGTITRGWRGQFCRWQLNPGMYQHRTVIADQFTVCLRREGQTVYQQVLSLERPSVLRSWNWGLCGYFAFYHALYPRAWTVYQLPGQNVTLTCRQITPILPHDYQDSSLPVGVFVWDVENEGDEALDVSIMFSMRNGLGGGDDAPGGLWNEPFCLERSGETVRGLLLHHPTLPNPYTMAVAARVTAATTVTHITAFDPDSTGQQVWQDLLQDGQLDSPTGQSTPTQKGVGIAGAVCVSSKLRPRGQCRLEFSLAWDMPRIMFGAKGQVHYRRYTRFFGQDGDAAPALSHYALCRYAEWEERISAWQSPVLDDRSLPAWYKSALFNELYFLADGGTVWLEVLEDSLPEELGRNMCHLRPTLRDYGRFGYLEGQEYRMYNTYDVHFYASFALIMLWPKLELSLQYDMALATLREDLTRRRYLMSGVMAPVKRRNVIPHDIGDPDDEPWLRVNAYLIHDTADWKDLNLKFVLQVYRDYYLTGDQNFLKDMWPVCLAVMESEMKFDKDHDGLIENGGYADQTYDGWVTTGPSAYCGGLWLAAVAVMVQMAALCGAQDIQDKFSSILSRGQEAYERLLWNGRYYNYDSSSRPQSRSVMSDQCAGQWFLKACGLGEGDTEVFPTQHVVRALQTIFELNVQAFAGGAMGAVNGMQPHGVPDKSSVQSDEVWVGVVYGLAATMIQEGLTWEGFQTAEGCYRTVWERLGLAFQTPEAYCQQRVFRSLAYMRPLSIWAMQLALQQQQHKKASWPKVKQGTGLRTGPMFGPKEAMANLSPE
As to the kind of experiment: Confocal microscopy of ABP 4 staining after inhibitor pre-treatment in GBA2 overexpressing cells. The test is classed as cell-based. Set-up: expressed in transfected cells; host or cells: HEK293T GBA1/GBA2 KO (CRISPR/Cas9), GBA2 overexpressed. The note with it: 16 h pre-treatment (21 100 nM, 22 500 nM), then ABP 4 50 nM 2 h; GBA2 OE HEK293T cells. The method, then:
To confirm the specific staining of GBA2, cells overexpressing GBA2 were pre-treated with either the specific GBA1 inhibitor 21 [32] or the GBA1/GBA2 inhibitor 22.[36]
Figure S11. Confocal fluorescence microscopy of A) HEK293T wild-type (WT), GBA2 overexpression (OE) or GBA1/2 knock out (KO) + GBA2 overexpression (OE) cells. Cells were pre-treated with either DMSO, GBA1/GBA2 inhibitor 22 or GBA1 selective inhibitor 21, and afterwards incubated with β-D-Araf aziridine BODIPY-red ABP 4 (50 nM) for 2 h. Subsequently, cells were fixed and stained for GBA1 (Green) with an anti-GBA1 antibody. B) RAW264.7 cells pre-treated with either DMSO or GBA1/GBA2 inhibitor 22 and incubated β-D-Araf aziridine ABP 4 for (50 nM) for 2 h. […]
Figure S12. […] Competitive ABPP allow for the determination of apparent IC50 values by quantification of the fluorescence intensity of ABP 7 as described in experimental section. […]
2.12 Reactivity of β-D-Araf aziridines towards GBA2 orthologue in other species β-D-Araf aziridine ABP 3-5 or ABP 7 was incubated with homogenates of zebrafish (Danio rerio) larvae or mice brain for 1 h at 37 °C. […] The zebrafish homogenates were passed through a desalting column (in the same way as described for the irreversibility evaluation above) to remove interference from biological pigments when scanning at λEX 473 nm and λEM ≥ 510 nm for BODIPY green fluorescence. […]

`CCCCCN1[C@@H]2[C@H](CO)[C@@H](O)[C@H](O)[C@@H](O)[C@@H]21` (stereo partly shown) [Inhibitor 22]: the “Effect of pre-treatment on ABP 4 staining of GBA2” value is reported as “completely abrogated”.
